In patent US20260217701A1, “SELECTIVE BET INHIBITORS AND USES THEREOF” (Tay Therapeutics Limited, priority 2022, published 2026):

Target: T1, BRD4 BD2 (Homo sapiens, UniProt O60885)
T1 construct: HEK293 cells were transfected using NanoLuc-BRD4-BD1 or NanoLuc-BRD4-BD2 fusion vectors
Test: NanoBRET bromodomain assay, NanoLuc-BRD4-BD2 in HEK293 cells
Format: binding
Details: nanoBRET assay, given as symbol only
Procedure: Plates were then incubated at 37° C.+5% CO2 incubator for 2 hours.
Fold Selectivity Calculated (IC50 BD1/IC50 BD2).

Selectivity (BD1/BD2) (higher number denotes higher selectivity): >>>>
BD2 (lower number denotes higher potency): <
Compound: Cn1cc(-c2ccccc2)c(-c2cn(C)c(=O)c3[nH]c(-c4cnn(C(F)(F)F)c4)c(F)c23)cc1=O [Compound D, 3-fluoro-6-methyl-4-(1-methyl-2-oxo-5-phenyl-1,2-dihydropyridin-4-yl)-2-(1-(trifluoromethyl)-1H-pyrazol-4-yl)-1,6-dihydro-7H-pyrrolo[2,3-c]pyridin-7-one]
